From patent publication US20160361444A1, “USE OF IVABRADINE AS DIAGNOSTIC AGENT IN THE METHOD OF CORONARY ANGIOGRAPHY BY MULTISLICE COMPUTED TOMOGRAPHY” (LES LABORATOIRES SERVIER, priority 2008, published 2016)

Test: Clinical study: effect of i.v. administration of ivabradine hydrochloride on heart rate in healthy volunteers
Format: in vivo
Settings: i.v. bolus of ivabradine hydrochloride solution containing 16 mg ivabradine base, resting heart rate (lying position) at T0+30 min, vs placebo control group
Method: Clinical Study. Effect of i.v. Administration of Ivabradine Hydrochloride on Heart Rate in Healthy Volunteers.
Resting heart rate (in a lying position) is measured at T0. The subjects are then given an i.v. bolus of a solution of ivabradine hydrochloride containing 16 mg of ivabradine base (treated group, n=8) or of placebo (control group, n=2). The resting heart rate (in a lying position) is again measured at T0+30 min.

With COc1cc2c(cc1OC)CC(=O)N(CCCN(C)C[C@H]1Cc3cc(OC)c(OC)cc31)CC2 [ivabradine] the “heart rate lower than the heart rate in the control group” value was 16%.
